Several values for one entry are separate records, joined by “and”; a condition that tells them apart may be missing. Equal values may be shown once. Numbers after ± are expanded uncertainties.
How the values were obtained:
[1] = xn = mol fraction of the nth substance listed; conditions: 101.33 kPa, Liquid, x2 = 0; for speed of sound: Sing-around technique in a fixed-path interferometer
[2] = 101.33 kPa, Liquid; for speed of sound: Sing-around technique in a fixed-path interferometer

Row | SMILES | speed of sound ([1]; 293.15 K) [m/s] | mass density ([1]; 293.15 K) [kg/m3] | viscosity ([1]; 293.15 K) [mPa·s] | speed of sound ([1]; 298.15 K) [m/s] | mass density ([1]; 298.15 K) [kg/m3] | viscosity ([1]; 298.15 K) [mPa·s] | speed of sound ([1]; 303.15 K) [m/s] | mass density ([1]; 303.15 K) [kg/m3] | viscosity ([1]; 303.15 K) [mPa·s] | mass density ([2]; 293.15 K) [kg/m3] | viscosity ([2]; 293.15 K) [mPa·s] | speed of sound ([2]; 293.15 K) [m/s] | mass density ([2]; 298.15 K) | viscosity ([2]; 298.15 K) [mPa·s] | speed of sound ([2]; 298.15 K) [m/s] | mass density ([2]; 303.15 K) [kg/m3] | viscosity ([2]; 303.15 K) [mPa·s] | speed of sound ([2]; 303.15 K) [m/s]
1 | CCCCCCCCCC [decane] + CCCC(C)O | 1254 ± 1 | 729.89 ± 0.8 | 0.911 ± 0.016 | 1235 ± 1 | 726.12 ± 0.8 | 0.845 ± 0.015 | 1215 ± 1 | 722.33 ± 0.81 | 0.787 ± 0.014 |  |  |  |  |  |  |  |  | 
2 | CCCCCCCCCC [decane] |  |  |  |  |  |  |  |  |  | 729.89 ± 0.8 | 0.911 ± 0.016 | 1254 ± 1 | 726.12 ± 0.8 kg/m3 | 0.845 ± 0.015 | 1235 ± 1 | 722.33 ± 0.81 | 0.787 ± 0.014 | 1215 ± 1
3 | CCCCCCCCCCCC [dodecane] |  |  |  |  |  |  |  |  |  | 748.54 ± 0.77 | 1.454 ± 0.024 | 1297 ± 1 | 744.9 ± 0.77 kg/m3 | 1.327 ± 0.022 | 1278 ± 1 | 741.27 ± 0.78 | 1.219 ± 0.02 | 1259 ± 1
4 | CCCCCCCC [octane] + CCCC(C)O | 1193 ± 1 | 702.57 ± 0.78 | 0.538 ± 0.01 | 1173 ± 1 | 698.54 ± 0.79 | 0.506 ± 0.009 | 1152 ± 1 | 694.49 ± 0.8 | 0.478 ± 0.009 |  |  |  |  |  |  |  |  | 
5 | CCCCCCCC [octane] |  |  |  |  |  |  |  |  |  | 702.57 ± 0.78 | 0.538 ± 0.01 | 1193 ± 1 | 698.54 ± 0.79 kg/m3 | 0.506 ± 0.009 | 1173 ± 1 | 694.49 ± 0.8 | 0.478 ± 0.009 | 1152 ± 1
6 | CCCC(C)O (stereo not drawn) [pentan-2-ol] |  |  |  |  |  |  |  |  |  | 809.04 ± 0.99 | 4.001 ± 0.075 | 1250 ± 2 | 805.01 ± 0.99 kg/m3 and 805 ± 0.99 kg/m3 | 3.273 ± 0.063 | 1232 ± 2 | 800.9 ± 0.99 | 2.708 ± 0.053 | 1214 ± 2
7 | CCCCCCCCCCCC [dodecane] + CCCC(C)O | 1297 ± 1 | 748.54 ± 0.77 | 1.454 ± 0.024 | 1278 ± 1 | 744.9 ± 0.77 | 1.327 ± 0.022 | 1259 ± 1 | 741.27 ± 0.78 | 1.219 ± 0.02 |  |  |  |  |  |  |  |  | 

— the NIST ThermoML archive (doi:10.1021/je034208m)
